Reference: patent publication US10709791B2, “Stabilized polymeric carriers for therapeutic agent delivery” (University of Washington, priority 2014, dated 2020)
Square brackets hold non-standard residues; d marks the D form. Peptide text beside a SMILES is read from it. * marks the point of attachment. Methacryloyl = C=C(C)C(=O)*; Ahx = NCCCCCC(=O)O

Legend:
[1] = human serum, 37° C., at 120 h
Protocol: The drug release studies were conducted at 37° C. and free drug detection was quantified using an elution gradient profile at 277 nm. The studies were conducted with deprotected monomers and polymers.
HPLC was used to quantify drug release by detecting free drug as a function of time normalized to amount of drug present during initial incubation. This in turn was standardized to the total available drug in the system as quantified by dissolving a known amount of polymer in 10% aq. H2SO4 for 48 h at 25° C. Using a Cipro standard curve, the total amount of drug in the polymers was validated against compositional values obtained from ^19F NMR. […]
Absorbance Detector, and Agilent ChemStation software for LC system (Palo Alto, Calif.). […]
Both non-serum (mobile phase:deionized water) and serum standards were subsequently treated with 50% acetonitrile (v/v) to promote protein precipitation. […] Non-serum standards were analysed without the need for centrifugation. […]
The drug release from polymer conjugates was carried out in serum at 37° C. at a polymer concentration of 6 mg/mL. […] Quantification of total Cipro in the polymer conjugates was measured by taking 6 mg/mL of polymer and dissolving it in 10% aq. […] The HPLC with a gradient elution profile was used to quantify amount of drug released using the same instrument parameters set forth for drug standards. […]

[2] = molecular target: butyrylcholinesterase (BChE) (Homo sapiens, UniProt P06276); settings: buffer with BChE, relative to buffer alone
butyrylcholinesterase (BChE), sequence (P06276 29-602): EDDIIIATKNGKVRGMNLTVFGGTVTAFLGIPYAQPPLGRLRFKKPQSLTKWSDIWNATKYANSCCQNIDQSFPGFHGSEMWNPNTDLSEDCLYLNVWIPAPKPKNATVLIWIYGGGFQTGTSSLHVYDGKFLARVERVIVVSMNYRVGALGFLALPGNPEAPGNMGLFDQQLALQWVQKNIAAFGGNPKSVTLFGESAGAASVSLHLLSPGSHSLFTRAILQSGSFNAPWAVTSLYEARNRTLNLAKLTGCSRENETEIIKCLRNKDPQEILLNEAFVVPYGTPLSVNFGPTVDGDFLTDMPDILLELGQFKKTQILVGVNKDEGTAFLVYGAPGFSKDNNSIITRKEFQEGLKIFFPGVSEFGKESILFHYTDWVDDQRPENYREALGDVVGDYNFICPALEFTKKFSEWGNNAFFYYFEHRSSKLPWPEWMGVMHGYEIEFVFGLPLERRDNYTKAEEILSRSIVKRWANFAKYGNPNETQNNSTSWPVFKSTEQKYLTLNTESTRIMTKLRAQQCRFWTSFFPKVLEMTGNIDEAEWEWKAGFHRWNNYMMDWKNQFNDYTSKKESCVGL
Protocol: The drug release studies were conducted at 37° C. and free drug detection was quantified using an elution gradient profile at 277 nm.
Recombinant human butyrylcholinesterase (BChE) was obtained from R&D systems.

[3] = molecular target: T1, Human liver cathepsin B (Homo sapiens, UniProt P07858); assay: Cathepsin B cleavage assay; assay type: biochemical; settings: for cathepsin B cleavage of FKFL linker and peptide release: RP-HPLC and MS
T1 construct: purchased Enzo Life Sciences; host or cells: human liver
Protocol: Human liver cathepsin B (Enzo Life Sciences) was activated for 15 minutes in a solution of 0.158 mg/mL cathepsin B, 20 mM DTT, and 10 mM EDTA at 37° C. Peptide or polymer was then solubilized in reaction buffer (10 mM phosphate, 1 mM EDTA, pH 6.6, 37° C.) and added to the enzyme solution for a final concentration of 1.28 μg/mL cathepsin B and […] peptide/polymer. […] Cleavage of the polymers was also visualized by SDS-PAGE on 8-16% Tris-Glycine Gels (Bio-Rad). For protein gel analyses, reactions were conducted at 3× concentration and 160 μg of polymer was loaded per well.

[4] = Serum stability of peptide macromonomers and polymers; assay type: in vitro ADME, human; settings: 37° C., 0 to 12 hours, MALDI-TOF MS
Protocol: The stability of the peptide (FKFL) linker in the presence of serum proteases was evaluated by incubating the peptide monomers and polymers in human serum and analyzing the degradation products over time. Peptide (40 mM, DMSO) or polymer (4 mM, PBS) was added to human serum to a final peptide/polymer concentration of 400 μM and incubated at 37° C. At various time points, 40 μL aliquots of the mixture were withdraw and 40 μL of acetonitrile was added to precipitate serum proteins and halt protease degradation. Precipitated solutions were centrifuged at 13,000 rpm for 10 min and supernatants were analyzed by MALDI-TOF MS using a Bruker Autoflex II.

[5] = tested on: caspase 3/7; settings: 10 μM, 72 hours
Protocol: Caspase 3/7 activity was measured using a SensoLyte Homogenous AMC Caspase-3/7 Assay Kit (AnaSpec). SKOV3 cells were plated in a black 96-well plate with a clear bottom at a density of 7,000 per well and then treated with polymer (0-10 μM) for 72 hours. Assay reagents were mixed with cell culture medium as per the manufacturer's instructions, incubated for 24 hours, and fluorescence (ex/em=380 nm/500 nm) was measured using a plate reader. Percent caspase 3/7 activity was calculated relative to untreated cell cultures.

[6] = tested on: SKOV3 human ovarian cancer cells; settings: 10 μM, 72 hours
Protocol: Induction of apoptosis was measured with a FITC Annexin V/Dead Cell Apoptosis Kit (Invitrogen) as per the manufacturer's instructions. SKOV3s cells were plated in 6-well plates at a density of 120,000 cells per well and treated with 10 μM polymer solutions for 72 hours. After 72 hours, cells were trypsinized, rinsed in PBS, centrifuged, stained with FITC-annexin V, and analyzed on a BD LSRII flow cytometer.

In the case of C=C(C)C(=O)OCCOC(=O)c1cn(C2CC2)c2cc(N3CCN(C(=O)OC(C)(C)C)CC3)c(F)cc2c1=O [HBC, (hydroxyethyl)methacrylate-boc-ciprofloxacin], the drug release [1] is reported as roughly 50% and the “effect of added BChE on ester hydrolysis” value [2] is reported as “increases hydrolysis”.

In the case of C=C(C)C(=O)NCCCCCC(=O)N[C@@H](Cc1ccccc1)C(=O)N[C@@H](CCCCN)C(=O)N[C@@H](Cc1ccccc1)C(=O)N[C@@H](CC(C)C)C(=O)NCCCCCC(=O)N[C@@H](CC(C)C)C(=O)N[C@@H](CCCNC(=N)N)C(=O)N[C@@H](CCSC)C(=O)N[C@@H](CCCNC(=N)N)C(=O)N[C@@H](CCC(=O)O)C(=O)N[C@H](C(=O)N[C@H](C(=O)N[C@@H](CC(=O)O)C(=O)N[C@@H](C)C(=O)N[C@@H](Cc1ccc(O)cc1)C(=O)N[C@@H](CCC(=O)O)C(=O)N[C@@H](CCCNC(=N)N)C(=O)N[C@@H](CCC(N)=O)C(=O)N[C@@H](Cc1ccccc1)C(=O)NCC(=O)N[C@@H](CCC(=O)O)C(=O)N1CCC[C@H]1C(=O)N[C@@H](CC(N)=O)C(=O)N[C@H](C(=O)N[C@@H](Cc1c[nH]c2ccccc12)C(=O)N[C@@H](C)C(N)=O)[C@@H](C)CC)[C@@H](C)CC)[C@@H](C)CC [MaAhxFKFLAhxScrBIM] ({Methacryloyl-Ahx}-FKFL[Ahx]LRMREIIDAYERQFGEPNIWA-NH2), the “cleavage at the FKFL linker” value ([3]; by 20 minutes) is reported as 100% and the “stability of the FKFL linker in human serum” value [4] is reported as “intact peptide monomer (3437 Da) was detectable after 12 hours”.

For “ciprofloxacin-(phenol)methacrylate [CPM]”, the “effect of added BChE on ester hydrolysis” value [2] was “increases hydrolysis”.

With “poly[(DEAEMA)-co-(BMA)]-b-[(PEGMA300)-c-(MaAhxFKFLAhxBIM)] [PolBIM]” the “cathepsin B cleavage of FKFL linker and peptide release” value [3] was “release the desired (2980 Da) peptide product”, the “caspase 3/7 activity relative to untreated cells” value [5] was “more than 8 fold” and the “cells staining positive for annexin V” value [6] was 87%.

In the case of “poly[(DEAEMA)-co-(BMA)]-b-[(PEGMA300)-c-(MaAhxFKFLAhxScrBIM)] [PolScrBIM]”, the “cathepsin B cleavage of FKFL linker and peptide release” value [3] is reported as “release the desired (2980 Da) peptide product”, the “caspase 3/7 activity relative to untreated cells” value [5] is reported as “no change” and the “cells staining positive for annexin V” value [6] is reported as 15%.
